For this assay, the system named is endotoxin. Put plainly: Protection of mice against lethal endotoxin challenge. The class given is in vivo. The conditions noted are these: compared with lipid X as reported in the literature. Here is the method: The lethal dose of E. coli endotoxin was determined both for the intravenous and for the intraperitoneal challenge. […] (It is important to standardize each lot of endotoxin with each lot of mice.) To determine the approximate dose of lipid A derivative needed to protect against a lethal challenge of endotoxin, mice are pretreated with the lipid A derivative intraperitoneally 2 hours before challenge with 1500 μg of endotoxin, which is 3 times the LD100 dose. Pretreatment of mice with the lipid A derivative appeared to prolong the time to death.

Molecules are shown by their SMILES.

Take `CCCCCCC=CCCCCCC(=O)OC(CCCCCCCCCCC)CC(=O)NC1C(OCC2OC(OP(=O)(O)O)C(NC(=O)CC(=O)CCCCCCCCCCC)C(OC(=O)CC(O)CCCCCCC)C2O)OC(CO)C(OP(=O)(O)O)C1OC(=O)CC(O)CCCCCCC` (stereo not shown) [DPLA]: the “protection of mice against a lethal dose of endotoxin” value is given as “more effective than lipid X”.

For the origin of these results see patent US5158939A, “Method of stimulating the immune systems of animals and compositions useful therefor” (priority 1990, dated 1992).
